From ChEMBL document CHEMBL1201862, “PubChem BioAssay data set” (2004)
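Grown in 96-well plates, cells were treated for 48 hours with each compound at five concentrations. Insufficient inhibition: endpoint recorded as highest concentration tested. GI50: concentration for 50% inhibition of growth.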 The source made the active and inactive calls. Rule as the data show it: active = GI50 up to about 1.1 µM and inactive = higher.

Tests used:
Experiment in all cases: growth of human tumour cells (NCI), 48 h
786-0 = tested on: 786-0
ACHN = tested on: ACHN
HCT-116 = tested on: HCT-116
HOP-62 = tested on: HOP-62
HT-29 = tested on: HT-29
KM12 = tested on: KM12
MDA-MB-435 = tested on: MDA-MB-435
MOLT-4 = tested on: MOLT-4
Malme-3M = tested on: Malme-3M
NCI-H23 = tested on: NCI-H23
NCI-H460 = tested on: NCI-H460
OVCAR-8 = tested on: OVCAR-8
PC-3 = tested on: PC-3
SK-OV-3 = tested on: SK-OV-3
SNB-75 = tested on: SNB-75
U-251 = tested on: U-251
UACC-62 = tested on: UACC-62
M14 = tested on: M14
MDA-N = tested on: MDA-N
MCF7 = tested on: MCF7

Cc1ccc(-c2nc3n(c2/C=N\N=C(N)N)CCS3)cc1
GI50 (786-0): 15.8 µM (inactive)
GI50 (ACHN): 15 µM (inactive)
GI50 (HCT-116): 14.8 µM (inactive)
GI50 (HOP-62): 15 µM (inactive)
GI50 (HT-29): 14 µM (inactive)
GI50 (KM12): 15 µM (inactive)
GI50 (MDA-MB-435): 15.5 µM (inactive)
GI50 (MOLT-4): 45.8 µM (inactive)
GI50 (Malme-3M): 17.3 µM (inactive)
GI50 (NCI-H23): 15.8 µM (inactive)
GI50 (NCI-H460): 18 µM (inactive)
GI50 (OVCAR-8): 15.6 µM (inactive)
GI50 (PC-3): 15 µM (inactive)
GI50 (SK-OV-3): 15.3 µM (inactive)
GI50 (SNB-75): 10.9 µM (inactive)
GI50 (U-251): 14.9 µM (inactive)
GI50 (UACC-62): 18.1 µM (inactive)

O=c1oc2ccccc2c2nc3ccccc3cc12
GI50 (786-0): 28.2 µM (inactive)
GI50 (ACHN): 31 µM (inactive)
GI50 (HCT-116): 40.2 µM (inactive)
GI50 (HT-29): 99.5 µM (inactive)
GI50 (KM12): > 100 µM (inactive)
GI50 (M14): > 100 µM (inactive)
GI50 (MDA-MB-435): > 100 µM (inactive)
GI50 (MDA-N): > 100 µM (inactive)
GI50 (MOLT-4): > 100 µM (inactive)
GI50 (Malme-3M): > 100 µM (inactive)
GI50 (NCI-H23): > 100 µM (inactive)
GI50 (NCI-H460): 37.8 µM (inactive)
GI50 (OVCAR-8): 46.7 µM (inactive)
GI50 (PC-3): 56.2 µM (inactive)
GI50 (SK-OV-3): 51.9 µM (inactive)
GI50 (U-251): 30.1 µM (inactive)
GI50 (UACC-62): 35.3 µM (inactive)

O=C1CC(C(OCc2ccccc2)C(OCc2ccccc2)C(OCc2ccccc2)C(COCc2ccccc2)OCc2ccccc2)CC(=O)N1 (configuration not stated)
GI50 (786-0): > 100 µM (inactive)
GI50 (ACHN): > 100 µM (inactive)
GI50 (HOP-62): > 100 µM (inactive)
GI50 (HT-29): > 100 µM (inactive)
GI50 (M14): > 100 µM (inactive)
GI50 (MDA-MB-435): > 100 µM (inactive)
GI50 (MDA-N): > 100 µM (inactive)
GI50 (MOLT-4): 59 µM (inactive)
GI50 (Malme-3M): > 100 µM (inactive)
GI50 (NCI-H23): > 100 µM (inactive)
GI50 (NCI-H460): > 100 µM (inactive)
GI50 (OVCAR-8): > 100 µM (inactive)
GI50 (PC-3): > 100 µM (inactive)
GI50 (SNB-75): > 100 µM (inactive)
GI50 (U-251): 79.8 µM (inactive)

CC(C)=NN/C(=N\c1ccc(Cl)cc1)NS(=O)(=O)c1cc2ccccc2s1
GI50 (786-0): > 100 µM (inactive)
GI50 (HCT-116): 40.4 µM (inactive)
GI50 (HOP-62): > 100 µM (inactive)
GI50 (HT-29): 63.1 µM (inactive)
GI50 (KM12): 90.4 µM (inactive)
GI50 (M14): 56.5 µM (inactive)
GI50 (MCF7): 53 µM (inactive)
GI50 (MDA-MB-435): 36.7 µM (inactive)
GI50 (MOLT-4): 16.6 µM (inactive)
GI50 (Malme-3M): 89.9 µM (inactive)
GI50 (NCI-H23): 76 µM (inactive)
GI50 (NCI-H460): > 100 µM (inactive)
GI50 (OVCAR-8): > 100 µM (inactive)
GI50 (PC-3): 45.7 µM (inactive)
GI50 (U-251): > 100 µM (inactive)
GI50 (UACC-62): > 100 µM (inactive)

O=C(O)C1Cc2ccccc2OC1=O (configuration not stated)
GI50 (786-0): > 100 µM (inactive)
GI50 (ACHN): > 100 µM (inactive)
GI50 (HCT-116): > 100 µM (inactive)
GI50 (HOP-62): > 100 µM (inactive)
GI50 (HT-29): > 100 µM (inactive)
GI50 (KM12): > 100 µM (inactive)
GI50 (M14): > 100 µM (inactive)
GI50 (MCF7): > 100 µM (inactive)
GI50 (MDA-MB-435): > 100 µM (inactive)
GI50 (MOLT-4): > 100 µM (inactive)
GI50 (Malme-3M): > 100 µM (inactive)
GI50 (NCI-H23): 8.69 µM (inactive)
GI50 (NCI-H460): > 100 µM (inactive)
GI50 (OVCAR-8): > 100 µM (inactive)
GI50 (PC-3): > 100 µM (inactive)
GI50 (SK-OV-3): > 100 µM (inactive)
GI50 (U-251): > 100 µM (inactive)
GI50 (UACC-62): > 100 µM (inactive)

N=c1oc2ccc3ccccc3c2cc1C(N)=O
GI50 (786-0): 34 µM (inactive)
GI50 (ACHN): 24.9 µM (inactive)
GI50 (HCT-116): 36.9 µM (inactive)
GI50 (HOP-62): 48.3 µM (inactive)
GI50 (HT-29): 38.7 µM (inactive)
GI50 (KM12): 16.7 µM (inactive)
GI50 (M14): 55.5 µM (inactive)
GI50 (MDA-MB-435): 53.6 µM (inactive)
GI50 (MDA-N): 37.1 µM (inactive)
GI50 (MOLT-4): 48.6 µM (inactive)
GI50 (NCI-H23): 48.6 µM (inactive)
GI50 (NCI-H460): 46.3 µM (inactive)
GI50 (OVCAR-8): 80.5 µM (inactive)
GI50 (PC-3): 18.7 µM (inactive)
GI50 (SK-OV-3): 96.2 µM (inactive)
GI50 (SNB-75): 71.9 µM (inactive)
GI50 (U-251): 94.6 µM (inactive)
GI50 (UACC-62): 28 µM (inactive)

Oc1ccc(CCNCc2cc3c(cc2Br)OCO3)cc1
GI50 (786-0): 71 µM (inactive)
GI50 (ACHN): 95.5 µM (inactive)
GI50 (HCT-116): 61.7 µM (inactive)
GI50 (HOP-62): 79.3 µM (inactive)
GI50 (HT-29): 52.8 µM (inactive)
GI50 (M14): 38.1 µM (inactive)
GI50 (MCF7): 70.1 µM (inactive)
GI50 (MDA-N): 68.2 µM (inactive)
GI50 (MOLT-4): 32.6 µM (inactive)
GI50 (Malme-3M): 62.8 µM (inactive)
GI50 (NCI-H23): > 100 µM (inactive)
GI50 (NCI-H460): 57.8 µM (inactive)
GI50 (OVCAR-8): > 100 µM (inactive)
GI50 (PC-3): 46.9 µM (inactive)
GI50 (SK-OV-3): 51.8 µM (inactive)
GI50 (SNB-75): 18.4 µM (inactive)
GI50 (U-251): 77.8 µM (inactive)
GI50 (UACC-62): 52.7 µM (inactive)

O=C1/C(=N\NC(=S)Nc2ccc(Cl)cc2)c2cc([N+](=O)[O-])ccc2N1CN1CCOCC1
GI50 (786-0): 4.41 µM (inactive)
GI50 (ACHN): 4.73 µM (inactive)
GI50 (HCT-116): 4.12 µM (inactive)
GI50 (HOP-62): < 0.01 µM (active)
GI50 (KM12): 11.7 µM (inactive)
GI50 (M14): 10.1 µM (inactive)
GI50 (MCF7): 5.24 µM (inactive)
GI50 (MDA-MB-435): 6.38 µM (inactive)
GI50 (MOLT-4): 0.655 µM (active)
GI50 (Malme-3M): 6.17 µM (inactive)
GI50 (NCI-H23): 2.08 µM (inactive)
GI50 (NCI-H460): 7.78 µM (inactive)
GI50 (OVCAR-8): 5.6 µM (inactive)
GI50 (PC-3): 10.2 µM (inactive)
GI50 (SK-OV-3): 12.6 µM (inactive)
GI50 (SNB-75): 12.8 µM (inactive)
GI50 (U-251): 7.18 µM (inactive)
GI50 (UACC-62): 5.31 µM (inactive)
